Calls of active or inactive are those of the source.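 Rule for the calls: active = compounds giving half or more protection of infected cells from virus-caused growth loss, again on retest; inactive = the rest.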 Where a SMILES comes first, the peptide text is derived from it. The star is where a group is joined. Cbz = O=C(OCc1ccccc1)*
System: CEM cells HIV-1 protection, formazan growth assay
Experiment: NCI AIDS Antiviral Assay
Conditions: for IC50: measured here: growth of uninfected CEM cells
In short: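 Protection of CEM cells against HIV-1 measured as cell growth via soluble formazan read-out, with five concentrations tested on both infected and uninfected cells; failure to protect may reflect toxicity.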

Structure (SMILES) | EC50 [µM] | IC50 [µM] | outcome
CC(=O)OCC1OC(n2c(=S)[nH]c(-c3ccccc3)c(C#N)c2=O)C(OC(C)=O)C(OC(C)=O)C1OC(C)=O (configuration not stated) | > 200 | 170 | 
O=C(Oc1ccc(Cl)cc1[N+](=O)[O-])c1ccccc1 |  |  | inactive
CC(=N/NC(=S)N(C)C)/C(=N\NC(=S)N(C)C)c1ccccc1 | > 200 | 3.63 | 
CN(C)CC(=O)N1CCc2c([nH]c3ccccc23)C1c1cccnc1 (configuration not stated) | > 107 | > 107 | 
O=S(Nc1ccccc1)c1ccc(Cl)cc1 (configuration not stated) | > 200 | 81.3 | 
COc1ccc(/C=C(\C#N)c2ccc(Cl)cc2)cc1OC | > 200 | 174 | 
COC(=O)C1C(=O)C(C(=O)OC)C2C(C(=O)OC)C(=O)C(C(=O)OC)C12 (configuration not stated) | 166 | 355 | 
CC1=C(C(=O)N(C)c2ccc(Cl)c(C(=O)OC(C)C)c2)SCCO1 | > 240 | 93.3 | 
O=C1C=C(C2=C(C3=CC(=O)c4ccccc4C3=O)C(=O)c3ccccc3C2=O)C(=O)c2ccccc21 | > 100 | 1.38 | 
OC1CSCCSCCCSCCSC1 | > 126 | > 126 | 
CCOP(=O)(OCC)/C(C#N)=C\c1cccc2ccccc12 | > 83.2 | > 83.2 | 
O=C(O)CCOCCCCCCCCCl |  |  | inactive
O=C(Sc1nnnn1-c1ccccc1)Sc1nnnn1-c1ccccc1 | 97.7 | 178 | 
Oc1ccc(O)c([P+](c2ccccc2)(c2ccccc2)c2ccccc2)c1 | > 200 | 30.2 | 
CC(C)(C=O)CC(C#N)/C(=N\NC(N)=O)C(=O)Nc1ccccc1C(N)=O (configuration not stated) | > 676 | > 676 | 
CC1C/C(=N\N(C)C)C(C#N)(C#N)C1(C#N)C#N (configuration not stated) | > 200 | 6.03 | 
CCCCNC(=O)NNC(=O)c1cc(/C=C/c2cccc([N+](=O)[O-])c2)ncn1 | > 178 | > 178 | 
CC12CC1C(c1cccc([N+](=O)[O-])c1)(c1cccc([N+](=O)[O-])c1)N=N2 (configuration not stated) | > 200 | 13.5 | 
CC1(C)OCC(COC(=O)NCn2cc(-c3ccccc3)nn2)O1 (configuration not stated) | > 200 | > 200 | 
CO[C@H]1[C@H](O)[C@H](O[C@H]2CC[C@@]3(C)[C@H](CC[C@@H]4[C@@H]3CC[C@]3(C)[C@@H](C5=CC(=O)OC5)CC[C@]43O)C2)O[C@@H](C)[C@@H]1O |  |  | inactive
O=[N+]([O-])c1cccc(-c2cn3c(n2)Cc2ccccc2C3)c1 | > 200 | 33.9 | 
CCN(CC)/[N+]([O-])=N/OCOC(C)=O | > 200 | 102 | 

Structure (SMILES) | EC50 [µM] | IC50 [µM] | outcome
O=C(CC(=O)Nc1cccc(C(=O)O)c1)Nc1cccc(C(=O)O)c1 | > 200 | > 200 | 
Cn1c(=O)c2nc(-c3ccc(Cl)cc3)oc2n(C)c1=O | > 9.33 | > 9.33 | 
O=Nc1c(-c2ccccc2)nc2ccccn12 | > 200 | 38.9 | 
OCCNCCNc1c2ccccc2nc2cc(Cl)ccc12 |  |  | inactive
O=C1OC(Cl)C(N=P(c2ccccc2)(c2ccccc2)c2ccccc2)=C1Cl (configuration not stated) | > 12.3 | 9.33 | 
CN(C)c1ccc(/C=C/C=C\C2=CC(=C\C=C/C=C3C=CC(=[N+](C)C)C=C3)/Sc3ccccc32)cc1 | > 1.78 | > 1.78 | 
CCOP(=O)(O)C(Nc1ccc(N=Nc2ccccc2)cc1)c1ccc(C(Nc2ccc(N=Nc3ccccc3)cc2)P(=O)(O)OCC)cc1 (configuration not stated) | > 81.3 | 30.2 | 
N#CC(=N)c1ncn(-c2ccc(N)cc2)c1N | > 200 | 195 | 
c1cc2nnsc2s1 | > 251 | > 251 | 
N=c1c2ccccc2nc2oc3cc([N+](=O)[O-])ccc3n12 | > 195 | 138 | 
O=C(c1ccccc1)C1N=NN(Cc2ccccc2[N+](=O)[O-])C1C(=O)c1ccccc1 (configuration not stated) | > 4.79 | > 4.79 | 
COc1ccc(/C=N/N=C(\N)NO)c(O)c1 | > 200 | 10.5 | 
CC(=O)c1ccc(N=Nc2ccc3nonc3c2N)cc1 | > 200 | > 200 | 
COc1cc(N=Nc2c(O)c3ccccc3[nH]c2=O)c(OC)cc1N=Nc1ccccc1 | > 100 | > 100 | 
O=C1NC2CCC(C2)C1c1ccccc1 (configuration not stated) |  |  | inactive
C/C(CN1C(=O)c2ccccc2C1=O)=N\NS(=O)(=O)c1cccc(C(=O)O)c1 | > 309 | > 309 | 
C=CCn1c(-c2cc(C(C)(C)C)c(O)c(C(C)(C)C)c2)cs/c1=N\C(P(=O)(O)O)P(=O)(O)O | > 200 | 21.4 | 
CCOC(=O)c1ccc(CSc2ccc(OC)cc2)c([N+](=O)[O-])c1 | > 102 | 19.1 | 
Cc1nn(-c2ccccc2)c2c1S(=O)(=O)c1ccccc1-2 | > 112 | 69.2 | 
O=C1CC(CC(=O)C2CCCCC2=O)CC(=O)N1 (configuration not stated) |  |  | inactive
Cc1ccc(/C=C2\N=C(N3CCOCC3)NC2=O)cc1 | > 200 | > 200 | 
O=c1[nH]c(SCc2c(Cl)c(Cl)c(Cl)c(Cl)c2Cl)nc(=S)[nH]1 | > 200 | 83.2 | 

Structure (SMILES) | EC50 [µM] | IC50 [µM] | outcome
COc1ccc2c(c1)OC1(OCCO1)[C@@H]1C2CC[C@@]2(C)C1CCC21OCCO1 (some centres not stated) | > 18.6 | > 18.6 | 
COC1(OC)C(N(C)C)=C(Cl)C(=O)/C1=C/C=O | > 251 | 72.4 | 
O=C1c2ccccc2C2C1N2C(=O)C(F)(F)F (configuration not stated) | > 148 | 24.5 | 
O=C1c2ccccc2-c2cc(S)c([N+](=O)[O-])cc21 | > 200 | 145 | 
CC(=O)[C@@]1(c2ccccc2)N(C(=O)c2ccccc2)[C@@]1(C)C(=O)c1ccccc1 | > 646 | 562 | 
C=C1CN2CCc3c([nH]c4ccccc34)C2CC1CC(=O)N(C)C (configuration not stated) | > 562 | 468 | 
Cc1ccc(N=Nc2c(C)n(-c3ccc4scnc4c3)c(=S)n(-c3ccccc3)c2=O)cc1 | > 75.9 | > 75.9 | 
C[C@H]1N(O)CC2OC(n3ccc(=O)[nH]c3=O)C(O)C21O (mixture of isomers) | > 200 | > 200 | 
O=C1CCc2ccccc2O1 | > 1700 | 1410 | 
O=C(O)c1ccccc1/C=N\N(CCO)C1=NCCN1 | > 200 | > 200 | 
O=C1CS(=O)c2ccccc2N1 (configuration not stated) | > 372 | > 372 | 
CCCNC(=O)Cn1c(-c2ccccc2)cc2ccccc21 | > 200 | > 200 | 
COC(=O)C(=O)C(C(=O)C(=O)Nc1ccccc1C(N)=O)c1nc2ccc([N+](=O)[O-])cc2[nH]c1=O (configuration not stated) | > 525 | 372 | 
NS(=O)(=O)c1ccc(Nc2c3ccccc3nc3ncccc23)cc1 | > 200 | > 200 | 
Cc1ccc(S(=O)(=O)OI(O)CC(F)(F)F)cc1 | > 200 | > 200 | 
CC12CCCCC1(C)C2Sc1ccccc1 (configuration not stated) |  |  | inactive
CCOC(=O)c1sc(C(=O)OCC)c2c1-c1cccc3cccc-2c13 | > 200 | > 200 | 
CC(C)(CCCCC(C)(C)C1NC(=O)N1)C1NC(=O)N1 | > 200 | > 200 | 
C=C(C)[C@@H](C(=O)OC)N1C(=O)c2ccccc2C1=O | > 200 | > 200 | 
NC(=O)C(=Cn1c(=S)[nH]c2ccc([N+](=O)[O-])cc21)C(N)=O | > 200 | > 200 | 
Clc1ccc2c(c1)nnn1nccc21 | > 35.5 | > 35.5 | 
CC(NC(=O)C(NC(=O)OCc1ccccc1)C(C)C)C(=O)NCC(=O)O (stereo not drawn) (Cbz-Val-Ala-Gly-OH; configuration not given here) | > 200 | > 200 | 

Structure (SMILES) | EC50 [µM] | IC50 [µM] | outcome
CSc1c(C#N)c(S)n(-c2ccc(Cl)cc2)c(=O)c1C#N | > 200 | 52.5 | 
N.N.N.N.O=[N+]([O-])[O-].[Co+3].[N-]=[N+]=[N-].[N-]=[N+]=[N-] |  |  | inactive
Cc1ccc(-c2n[nH]c(=O)[nH]2)cc1 | > 200 | > 200 | 
C/C=C1/CN2CCC34C5=CC(=O)C(c6cc7c(cc6OC)N(C)C6=C(C(=O)OC)CC8(CC)CCCN9CCC67C98)=CC5=NC23CCC1C4C(=O)OC (configuration not stated) | > 200 | 4.9 | 
CCOC(=O)C(=O)Nc1c(C)cccc1C(C)(C)C | > 135 | > 135 | 
O=C1C=Cc2c(-c3ccccc3)oc3cccc1c23 |  |  | inactive
CSc1nc(-c2ccccc2)nc(C(C#N)C#N)n1 |  |  | inactive
O=c1[nH]nc(NNc2ccccc2)c2nnn(C3CCCCC3)c12 | > 200 | 12.6 | 
CCCCCC/C=C/CCCCCCCc1cccc(O)c1C(=O)O | > 102 | 63.1 | 
N#CC1(C#N)C(C#N)(C#N)C12CCCCC2Cl (configuration not stated) | > 20 | > 20 | 
COc1cccc(N2C(=O)C3CC(CC(C)(C)C)c4c([nH]c5ccccc45)C3C2=O)c1 (configuration not stated) | > 200 | 42.7 | 
O=c1c(O)c(O)c1=O.[NH2-].[NH2-].[NH2-].[NH2-].[NH2-].[Ru+5] | > 21.4 | > 21.4 | 
C=Cc1cc[n+](CCCCCCCCCCCC)cc1 | > 174 | 102 | 
O=[N+]([O-])c1ccc(Sc2c3ccccc3nc3ccccc23)nc1 | > 200 | 5.25 | 
CO[C@H]1C[C@@H]2CC[C@@H](C)[C@@](O)(O2)C(=O)C(=O)N2CCCC[C@H]2C(=O)O[C@H]([C@H](C)C[C@@H]2CC[C@@H](O)[C@H](OC)C2)CC(=O)[C@H](C)C=C(C)[C@@H](O)[C@@H](OC)C(=O)[C@H](C)C[C@H](C)/C=C/C=C/C=C1C | > 14.1 | 7.59 | 
O=S(=O)(OCCCCOS(=O)(=O)c1ccc(Cl)c(Cl)c1)c1ccc(Cl)c(Cl)c1 |  |  | inactive
COc1ccc2nc(C(=O)c3ccccc3)c(C)cc2c1 | > 25.7 | 17.4 | 
O=C(S)C(=O)Cc1nnn(-c2ccccc2)c1-c1ccccc1 | > 245 | > 245 | 
COc1cc(C2c3cc4c(cc3OC(Nc3ccccc3)C2C)OCO4)cc(OC)c1O (configuration not stated) |  |  | inactive
CC(C)(C)[Si](C)(C)OC[C@H]1O[C@@H](n2ccc(=O)[nH]c2=O)[C@H](O[Si](C)(C)C(C)(C)C)[C@@]12N[C@H](C(=O)O)CS2 | > 200 | 10 | 
Cc1cc(C)c(C(=O)c2c(C)ccc(C)c2C(=O)O)c(C)c1 | > 200 | > 200 | 
